In this test the test system is HIV-1 (H9IIIB strain). Kind of test: Cell-Based HIV Infection Assay Using a Reporter (MT4-GFP cells). The conditions noted are these: Human immunodeficiency virus 1, inflection point (IP) of viral growth inhibition; MT4-GFP cells infected with HIV-1 H9IIIB; 50% normal human serum; mean of at least two independent experiments; read-out: Cell Based IP (50% NHS). In a few lines:
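MT4-GFP cells (HIV LTR-driven GFP) bulk-infected with HIV-1 H9IIIB at low MOI for 24 h, washed, then exposed to compounds in RPMI plus 50% normal human serum, 0.4% DMSO. Infected cells counted at 24 and 48 h; R0 = 48 h/24 h ratio, inhibition normalised to DMSO and triple-drug control; IP from 4-parameter fit.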

On to `COC(=O)N[C@H](C(=O)N[C@H]1CCCC[C@@H]1CC[C@H]1CN[C@@H]2CCCS(=O)(=O)N1C2)C(c1ccc(F)cc1)c1ccc(F)cc1` [Example 92, methyl [(1S)-1-[bis(4-fluorophenyl)methyl]-2-{[(1S,2R)-2-{2-[(6R,9S)-2,2-dioxido-2-thia-1,7-diazabicyclo[4.3.1]dec-9-yl]ethyl}cyclohexyl]amino}-2-oxoethyl]carbamate], for which the EC50 came out at 56 nM.
`N[C@H](C(=O)N[C@H]1CCCC[C@@H]1CC[C@H]1CN[C@@H]2CCCS(=O)(=O)N1C2)C(c1ccc(F)cc1)c1ccc(F)cc1` [Example 93, N-[(1S,2R)-2-{2-[(6R,9S)-2,2-dioxido-2-thia-1,7-diazabicyclo[4.3.1]dec-9-yl]ethyl)cyclohexyl]-4-fluoro-β-(4-fluorophenyl)-L-phenylalaninamide]: the EC50 worked out at 56 nM.
Take `CC(C)n1cc([C@H](c2ccc(Cl)cc2)[C@H](N)C(=O)Nc2cccc(F)c2CCC2CNC3CCCS(=O)(=O)N2C3)ccc1=O` (stereo partly drawn) [Example 95, (βS)-4-chloro-N-{2-[2-(2,2-dioxido-2-thia-1,7-diazabicyclo[4.3.1]dec-9-yl)ethyl]-3-fluorophenyl}-β-[1-(1-methylethyl)-6-oxo-1,6-dihydropyridin-3-yl]-L-phenylalaninamide]: the EC50 was found to be 63 nM.
In the case of `COC(=O)N[C@H](C(=O)N[C@H]1CCCC[C@@H]1CC[C@H]1CN[C@@H]2CCCS(=O)(=O)N1C2)[C@@H](c1ccc(Cl)cc1)C(C)C` [Example 96, methyl [(1S,2S)-2-(4-chlorophenyl)-1-{[(1S,2R)-2-{2-[(6R,9S)-2,2-dioxido-2-thia-1,7-diazabicycIo[4.3.1]dec-9-yl]ethyl}cyclohexyl]carbamoyl}-3-methylbutyl]carbamate], the EC50 was found to be 180 nM.
`COC(=O)N[C@H](C(=O)N[C@H]1CCCC[C@@H]1CC[C@H]1CN[C@@H]2CCCS(=O)(=O)N1C2)[C@H](c1cncc(C(F)(F)F)c1)c1ccc(Cl)c(F)c1` [Example 97, methyl {(1S,2S)-2-(4-chloro-3-fluorophenyl)-1-{[(1S,2R)-2-{2-[(6R,9S)-2,2-dioxido-2-thia-1,7-diazabicyclo[4.3.1]dec-9-yl]ethyl}cyclohexyl]carbamoyl}-2-[5-(trifluoromethyl)pyridin-3-yl]ethyl}carbamate]: the EC50 is 19 nM.
Regarding `COC(=O)N[C@H](C(=O)N[C@H]1CCCC[C@@H]1CC[C@H]1CN[C@@H]2CCCS(=O)(=O)N1C2)[C@@H](c1ccc(Cl)cc1)c1ccc(OC)nc1` [Example 98, methyl [(1S,2S)-2-(4-chlorophenyl)-1-{[(1S,2R)-2-{2-[(6R,9S)-2,2-dioxido-2-thia-1,7-diazabicyclo[4.3.1]dec-9-yl]ethyl}cyclohexyl]carbamoyl}-2-(6-methoxypyridin-3-yl)ethyl]carbamate], the EC50 is 47 nM.
As to `COC(=O)N[C@H](C(=O)N[C@H]1CCCC[C@@H]1CC[C@H]1CN[C@@H]2CCCS(=O)(=O)N1C2)[C@H](c1cncc(F)c1)c1ccc(Cl)c(F)c1` [Example 99, methyl [(1S,2S)-2-(4-chloro-3-fluorophenyl)-1-{[(1S,2R)-2-{2-[(6R,9S)-2,2-dioxido-2-thia-1,7-diazabicyclo[4.3.1]dec-9-yl]ethyl}cyclohexyl]carbamoyl}-2-(5-fluoropyridin-3-yl)ethyl]carbamate], the EC50 was determined as 55 nM.
In the case of `COC(=O)N[C@H](C(=O)N[C@H]1CCCC[C@@H]1CC[C@H]1CN[C@@H]2CCCS(=O)(=O)N1C2)[C@@H](c1ccc(Cl)cc1)c1cc(F)cc(F)c1` [Example 100, methyl [(1S,2S)-2-(4-chlorophenyl)-2-(3,5-difluorophenyl)-1-{[(1S,2R)-2-{2-[(6R,9S)-2,2-dioxido-2-thia-1,7-diazabicyclo[4.3.1]dec-9-yl]ethyl}cyclohexyl]carbamoyl}ethyl]carbamate], the EC50 amounted to 24 nM.
Take `COC(=O)N[C@H](C(=O)Nc1cccc(F)c1CCC1CNC2CCCS(=O)(=O)N1C2)[C@@H](c1ccc(Cl)cc1)c1ccc(=O)n(C(C)C)c1` (stereo partly drawn) [Example 101, methyl {(1S,2S)-2-(4-chlorophenyl)-1-({2-[2-(2,2-dioxido-2-thia-1,7-diazabicyclo[4.3.1]dec-9-yl)ethyl]-3-fluorophenyl}carbamoyl)-2-[1-(1-methylethyl)-6-oxo-1,6-dihydropyridin-3-yl]ethyl}carbamate]: the EC50 turned out to be 59 nM.
In the case of `COC(=O)N[C@H](C(=O)Nc1cccc(F)c1CC[C@H]1CN[C@@H]2CCC(C)(C)S(=O)(=O)N1C2)[C@@H](c1ccc(F)cc1)[C@H]1C[C@@H](C)O[C@@H](C)C1` [Example 102, methyl {(1S)-2-[(2-{2-[(6R,9S)-3,3-dimethyl-2,2-dioxido-2-thia-1,7-diazabicyclo[4.3.1]dec-9-yl]ethyl}-3-fluorophenyl)amino]-1-[(R)-[(2R,4r,6S)-2,6-dimethyltetrahydro-2H-pyran-4-yl](4-fluorophenyl)methyl]-2-oxoethyl}carbamate], the EC50 was 32 nM.
Turning to `COC(=O)N[C@H](C(=O)Nc1cccc(F)c1CC[C@H]1CN[C@@H]2CCCS(=O)(=O)N1C2)[C@@H](c1ccc(F)cc1)[C@H]1C[C@@H](OC)C1` [Example 105, methyl [(1S)-2-[(2-{2-[(6R,9S)-2,2-dioxido-2-thia-1,7-diazabicyclo[4.3.1]dec-9-yl]ethyl}-3-fluorophenyl)amino]-1-{(R)-(4-fluorophenyl)[(1s,3S)-3-methoxycyclobutyl]methyl}-2-oxoethyl]carbamate], the EC50 was 33 nM.
With `CO[C@H]1C[C@@H]([C@H](c2ccc(F)cc2)[C@H](N)C(=O)Nc2cccc(F)c2CC[C@H]2CN[C@@H]3CCCS(=O)(=O)N2C3)C1` [Example 106, (βR)-N-(2-{2-[(6R,9S)-2,2-dioxido-2-thia-1,7-diazabicyclo[4.3.1]dec-9-yl]ethyl}-3-fluorophenyl)-4-fluoro-β-[(1s,3S)-3-methoxycyclobutyl]-L-phenylalaninamide], the EC50 turned out to be 110 nM.
In the case of `C[C@@H]1CC([C@H](c2ccc(F)cc2)[C@H](N)C(=O)N[C@H]2CCC[C@@H]2CC[C@H]2CN[C@@H]3CCCS(=O)(=O)N2C3)C[C@H](C)O1` (stereo partly drawn) [Example 107, (βR)-β-[(2R,4s,6S)-2,6-dimethyltetrahydro-2H-pyran-4-yl]-N-[(1S,2R)-2-{2-[(6R,9S)-2,2-dioxido-2-thia-1,7-diazabicyclo[4.3.1]dec-9-yl]ethyl}cyclopentyl]-4-fluoro-L-phenylalaninamide], the EC50 was determined as 84 nM.
Under `COC(=O)N[C@H](C(=O)N[C@H]1CCC[C@@H]1CC[C@H]1CN[C@@H]2CCCS(=O)(=O)N1C2)[C@@H](c1ccc(F)cc1)C1C[C@@H](C)O[C@@H](C)C1` (stereo partly drawn) [Example 108, methyl [(1S,2R)-2-[(2R,4s,6S)-2,6-dimethyltetrahydro-2H-pyran-4-yl]-1-{[(1S,2R)-2-{2-[(6R,9S)-2,2-dioxido-2-thia-1,7-diazabicyclo[4.3.1]dec-9-yl]ethyl}cyclopentyl]carbamoyl}-2-(4-fluorophenyl)ethyl]carbamate] stands 50 nM.
For the compound `COC(=O)N[C@H](C(=O)Nc1cccc(F)c1CC[C@H]1CN[C@@H]2CCC(C)S(=O)(=O)N1C2)[C@@H](c1ccc(F)cc1)C1C[C@@H](C)O[C@@H](C)C1` (stereo partly drawn) [Example 109, methyl [(1S,2R)-2-[(2R,6S)-2,6-dimethyltetrahydro-2H-pyran-4-yl]-1-[(3-fluoro-2-{2-[(6R,9S)-3-methyl-2,2-dioxido-2-thia-1,7-diazabicyclo[4.3.1]dec-9-yl]ethyl}phenyl)carbamoyl]-2-(4-fluorophenyl)ethyl]carbamate], the EC50 stood at 38 nM.
In the case of `CC1CC[C@@H]2CN([C@@H](CCc3c(F)cccc3NC(=O)[C@@H](N)[C@@H](c3ccc(F)cc3)C3C[C@@H](C)O[C@@H](C)C3)CN2)S1(=O)=O` (stereo partly drawn) [Example 110, (βR)-β-[(2R,6S)-2,6-dimethyltetrahydro-2H-pyran-4-yl]-4-fluoro-N-(3-fluoro-2-{2-[(6R,9S)-3-methyl-2,2-dioxido-2-thia-1,7-diazabicyclo[4.3.1]dec-9-yl]ethyl}phenyl)-L-phenylalaninamide], the EC50 stood at 55 nM.
Next, `COC(=O)N[C@H](C(=O)Nc1cccc(F)c1CC[C@H]1CN[C@@H]2CCCS(=O)(=O)N1C2)[C@@H](c1ccc(F)cc1)C1C[C@@H](C)O[C@H](C)C1` (stereo partly drawn) [Example 112, methyl [(1S,2R)-2-[(2R,6R)-2,6-dimethyltetrahydro-2H-pyran-4-yl]-1-[(2-{2-[(6R,9S)-2,2-dioxido-2-thia-1,7-diazabicyclo[4.3.1]dec-9-yl]ethyl}-3-fluorophenyl)carbamoyl]-2-(4-fluorophenyl)ethyl]carbamate]: 42 nM.
With `C[C@@H]1CC([C@H](c2ccc(F)cc2)[C@H](N)C(=O)Nc2cccc(F)c2CC[C@H]2CN[C@@H]3CCCS(=O)(=O)N2C3)C[C@@H](C)O1` (stereo partly drawn) [Example 113, (βR)-β-[(2R,6R)-2,6-dimethyltetrahydro-2H-pyran-4-yl]-N-(2-{2-[(6R,9S)-2,2-dioxido-2-thia-1,7-diazabicyclo[4.3.1]dec-9-yl]ethyl}-3-fluorophenyl)-4-fluoro-L-phenylalaninamide], the EC50 is 22 nM.
With `COC(=O)N[C@H](C(=O)Nc1cccc(F)c1CCC1CNC2CCCS(=O)(=O)N1C2)[C@@H](c1ccc(Cl)cc1)c1cncc(C(C)(F)F)c1` (stereo partly drawn) [Example 114, methyl [(1S,2S)-2-(4-chlorophenyl)-2-[5-(1,1-difluoroethyl)pyridin-3-yl]-1-({2-[2-(2,2-dioxido-2-thia-1,7-diazabicyclo[4.3.1]dec-9-yl)ethyl]-3-fluorophenyl}carbamoyl)ethyl]carbamate], the EC50 is 22 nM.
As for `COC(=O)N[C@H](C(=O)Nc1cccc(F)c1CCC1CNC2CCCS(=O)(=O)N1C2)[C@@H](c1ccc(Cl)cc1)c1ccc(C(C)(F)F)nc1` (stereo partly drawn) [Example 116, methyl [(1S,2S)-2-(4-chlorophenyl)-2-[6-(1,1-difluoroethyl)pyridin-3-yl]-1-({2-[2-(2,2-dioxido-2-thia-1,7-diazabicyclo[4.3.1]dec-9-yl)ethyl]-3-fluorophenyl}carbamoyl)ethyl]carbamate], the EC50 was 18 nM.
